Activity calls are given as the source filed them. The calls are words filed in the database; no cut-off is given here.
Key:
KB-C2 [1] = experiment: Reversal of resistance to paclitaxel-induced cytotoxicity in human KB-C2 cells assessed as reduction in paclitaxel IC50 at 2 uM preincubated for 4 hrs followed by paclitaxel addition and measured after 72 hrs by MTT assay (reference value: 1886.37 +/- 243.05 nM); type: functional, cell-based
Mus musculus [2] = experiment: Toxicity in BALB/c mouse xenografted with human SW-620/AD300 cells assessed as mortality at 30 mg/kg/day, ig administered 21 days; type: organism-based; conditions: in vivo, po, 504 h, time 21 day
SW-620 [3] = experiment: Antitumor activity against human SW-620/AD300 cells xenografted in BALB/c nude mouse assessed as reduction in tumor weight at 30 mg/kg/day, ig administered for 21 days in presence of paclitaxel; type: functional, organism-based; conditions: time 21.0 day
HEK293 [4] = experiment: Reversal of resistance to paclitaxel-induced cytotoxicity in human HEK293/pcDNA3.1 cells assessed as reversal fold at 2 uM preincubated for 4 hrs followed by paclitaxel addition and measured after 72 hrs by MTT assay; type: functional; conditions: time 76 hrs
SW-620 [5] = experiment: Effect on ABCB1 expression in human SW-620/AD300 cells at 2 uM measured upto 96 hrs by Western blot analysis; type: functional, cell-based
[6] = target: T1, ATP-dependent translocase ABCB1 (Homo sapiens, UniProt P08183); experiment: Binding affinity to ABCB1 in human SW-620/AD300 cells assessed as thermal stabilization of protein at 2 uM incubated for 76 hrs by CETSA-based Western blot analysis; type: cell-based; conditions: sw-620, 76 h
KB 3-1 [7] = experiment: Reversal of resistance to paclitaxel-induced cytotoxicity in human KB 3-1 cells assessed as reversal fold at 1 uM preincubated for 4 hrs followed by paclitaxel addition and measured after 72 hrs by MTT assay relative to paclitaxel; type: functional; conditions: time 76 hrs
KB-C2 [8] = experiment: Reversal of resistance to paclitaxel-induced cytotoxicity in human KB-C2 cells assessed as reversal fold at 2 uM preincubated for 4 hrs followed by paclitaxel addition and measured after 72 hrs by MTT assay relative to paclitaxel; type: functional; conditions: time 76 hrs
SW-620 [9] = experiment: Antitumor activity against human SW-620/AD300 cells xenografted in BALB/c nude mouse assessed as tumor growth inhibition at 30 mg/kg/day, ig administered for 21 days in presence of paclitaxel; type: functional; set-up: scale not given: the % may be the effect or the level left; conditions: time 21 day
SW-620 [10] = experiment: Effect on subcellular localization of ABCB1 in human SW-620/AD300 cells at 2 uM measured after 72 hrs by Hoechst 33258 staining based immunofluorescence assay; type: functional, cell-based
[11] = Clearance in Sprague-Dawley rat at 10 mg/kg, iv measured up to 24 hrs by LC-MS/MS analysis; type: ADME, organism-based; conditions: in vivo
SW-620 [12] = experiment: Antitumor activity against human SW-620/AD300 cells xenografted in BALB/c nude mouse assessed as increase in cells with vacuoles at 30 mg/kg/day, ig administered for 21 days in presence of paclitaxel by TUNEL staining based fluorescence microscopy; type: functional, organism-based; conditions: time 21.0 day
KB-C2 [13] = experiment: Reversal of resistance to paclitaxel-induced cytotoxicity in human KB-C2 cells assessed as reversal fold at 1 uM preincubated for 4 hrs followed by paclitaxel addition and measured after 72 hrs by MTT assay relative to paclitaxel; type: functional; conditions: time 76 hrs
[14] = target: T1, ATP-dependent translocase ABCB1; experiment: Activation of ABCB1 ATPase activity (unknown origin) assessed as fold stimulation of ATP hydrolysis at 0 to 20 uM using Mg-ATP as substrate incubated for 20 mins by spectrophotometric method; conditions: dose 0-20 µM
Mus musculus [15] = experiment: Hepatotoxicity in BALB/c mouse xenografted with human SW-620/AD300 cells at 30 mg/kg/day, ig administered for 21 days in presence of paclitaxel; type: toxicity, organism-based; conditions: in vivo, po, 504 h, time 21 day
SW-620 [16] = experiment: Reversal of resistance to paclitaxel-induced cytotoxicity in human SW-620 cells assessed as reversal fold at 2 uM preincubated for 4 hrs followed by paclitaxel addition and measured after 72 hrs by MTT assay relative to paclitaxel; type: functional; conditions: time 76 hrs
[17] = MRTinfinity in Sprague-Dawley rat at 10 mg/kg, iv measured up to 24 hrs by LC-MS/MS analysis; type: ADME, organism-based; conditions: in vivo
Mus musculus [18] = experiment: Toxicity in BALB/c mouse xenografted with human SW-620/AD300 cells assessed as change in body weight at 30 mg/kg/day, ig administered 21 days in presence of paclitaxel; type: organism-based; conditions: in vivo, po, 504 h, time 21 day
Mus musculus [19] = experiment: Toxicity in BALB/c mouse xenografted with human SW-620/AD300 cells assessed as change in body weight at 30 mg/kg/day, ig administered 21 days; type: organism-based; conditions: in vivo, po, 504 h, time 21 day
KB 3-1 [20] = experiment: Reversal of resistance to paclitaxel-induced cytotoxicity in human KB 3-1 cells assessed as reduction in paclitaxel IC50 at 2 uM preincubated for 4 hrs followed by paclitaxel addition and measured after 72 hrs by MTT assay (reference value: 4.54 +/- 1.59 nM); type: functional, cell-based
KB-C2 [21] = experiment: Reversal of resistance to paclitaxel-induced cytotoxicity in human KB-C2 cells assessed as reduction in paclitaxel IC50 at 1 uM preincubated for 4 hrs followed by paclitaxel addition and measured after 72 hrs by MTT assay (reference value: 1886.37 +/- 243.05 nM); type: functional, cell-based
HEK293 [22] = experiment: Reversal of resistance to paclitaxel-induced cytotoxicity in human HEK293/pcDNA3.1 cells assessed as reduction in paclitaxel IC50 at 2 uM preincubated for 4 hrs followed by paclitaxel addition and measured after 72 hrs by MTT assay (reference value: 1.93 +/- 0.06 nM); type: functional, cell-based
SW-620 [23] = experiment: Reversal of resistance to paclitaxel-induced cytotoxicity in human SW-620 cells assessed as reversal fold at 1 uM preincubated for 4 hrs followed by paclitaxel addition and measured after 72 hrs by MTT assay relative to paclitaxel; type: functional; conditions: time 76 hrs
HEK293 [24] = experiment: Reversal of resistance to paclitaxel-induced cytotoxicity in human HEK293/ABCB1 cells assessed as reduction in paclitaxel IC50 at 1 uM preincubated for 4 hrs followed by paclitaxel addition and measured after 72 hrs by MTT assay (reference value: 91.40 +/- 23.32 nM); type: functional, cell-based
[25] = AUCinfinity in Sprague-Dawley rat at 10 mg/kg, iv measured up to 24 hrs by LC-MS/MS analysis; type: ADME, organism-based; set-up: dose 10 mg/kg, time < 24 hrs, route iv; conditions: in vivo
SW-620 [26] = experiment: Antitumor activity against human SW-620/AD300 cells xenografted in BALB/c nude mouse assessed as increase in tumor cell apoptosis at 30 mg/kg/day, ig administered for 21 days in presence of paclitaxel by TUNEL staining based fluorescence microscopy; type: functional, organism-based; conditions: time 21.0 day
SW-620 [27] = experiment: Reversal of resistance to paclitaxel-induced cytotoxicity in human SW-620/AD300 cells assessed as reversal fold at 1 uM preincubated for 4 hrs followed by paclitaxel addition and measured after 72 hrs by MTT assay relative to paclitaxel; type: functional; conditions: time 76 hrs
KB 3-1 [28] = experiment: Reversal of resistance to paclitaxel-induced cytotoxicity in human KB 3-1 cells assessed as reversal fold at 2 uM preincubated for 4 hrs followed by paclitaxel addition and measured after 72 hrs by MTT assay relative to paclitaxel; type: functional; conditions: time 76 hrs
[29] = AUClast in Sprague-Dawley rat at 10 mg/kg, iv measured up to 24 hrs by LC-MS/MS analysis; type: ADME, organism-based; set-up: dose 10 mg/kg, time < 24 hrs, route iv; conditions: in vivo
HEK293 [30] = experiment: Reversal of resistance to paclitaxel-induced cytotoxicity in human HEK293/pcDNA3.1 cells assessed as reduction in paclitaxel IC50 at 1 uM preincubated for 4 hrs followed by paclitaxel addition and measured after 72 hrs by MTT assay (reference value: 1.93 +/- 0.06 nM); type: functional, cell-based

T1 sequence (P08183 whole entry): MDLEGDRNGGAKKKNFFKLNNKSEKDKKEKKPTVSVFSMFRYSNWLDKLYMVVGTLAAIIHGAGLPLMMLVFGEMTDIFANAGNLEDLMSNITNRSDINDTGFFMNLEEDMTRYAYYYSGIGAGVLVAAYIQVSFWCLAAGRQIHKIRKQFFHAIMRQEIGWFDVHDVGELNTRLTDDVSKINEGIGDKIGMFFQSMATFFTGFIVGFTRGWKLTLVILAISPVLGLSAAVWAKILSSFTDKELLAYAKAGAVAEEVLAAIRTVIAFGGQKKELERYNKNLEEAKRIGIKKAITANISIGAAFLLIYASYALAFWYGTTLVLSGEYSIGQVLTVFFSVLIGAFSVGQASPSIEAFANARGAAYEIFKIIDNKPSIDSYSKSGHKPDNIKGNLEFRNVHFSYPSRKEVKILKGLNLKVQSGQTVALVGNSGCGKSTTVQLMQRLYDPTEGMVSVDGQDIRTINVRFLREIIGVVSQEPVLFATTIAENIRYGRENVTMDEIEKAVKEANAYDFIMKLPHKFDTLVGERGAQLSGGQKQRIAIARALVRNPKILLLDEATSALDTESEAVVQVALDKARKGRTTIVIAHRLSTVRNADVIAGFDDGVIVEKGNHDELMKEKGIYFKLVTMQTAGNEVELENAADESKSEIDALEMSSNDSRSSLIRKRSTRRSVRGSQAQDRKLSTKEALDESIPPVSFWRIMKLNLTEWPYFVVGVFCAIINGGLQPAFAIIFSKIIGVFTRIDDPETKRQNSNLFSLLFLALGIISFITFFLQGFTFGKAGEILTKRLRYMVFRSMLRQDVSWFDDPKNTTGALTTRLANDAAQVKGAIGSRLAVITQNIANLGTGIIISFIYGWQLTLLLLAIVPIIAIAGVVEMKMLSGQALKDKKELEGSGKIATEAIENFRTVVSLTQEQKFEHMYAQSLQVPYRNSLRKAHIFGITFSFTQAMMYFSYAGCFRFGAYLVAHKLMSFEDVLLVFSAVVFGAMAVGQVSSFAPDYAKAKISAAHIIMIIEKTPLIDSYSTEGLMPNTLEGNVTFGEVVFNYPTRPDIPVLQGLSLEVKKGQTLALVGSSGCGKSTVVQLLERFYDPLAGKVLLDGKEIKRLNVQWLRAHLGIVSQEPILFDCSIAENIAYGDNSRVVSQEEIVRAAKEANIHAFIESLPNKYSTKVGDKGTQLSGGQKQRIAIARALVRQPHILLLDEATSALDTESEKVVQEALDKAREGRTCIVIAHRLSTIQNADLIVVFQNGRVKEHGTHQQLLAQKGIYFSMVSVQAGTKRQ

**Q.** What does the source list for `Cc1cc(Nc2ccc(C(=O)/C=C/c3ccc4ccccc4c3)cc2)n2nc(SCc3nc4ccccc4[nH]3)nc2n1`?
**A.** IC50 (KB-C2 [1]): 3.67 nM; Activity (Mus musculus [2]): Non-Toxic; Activity (SW-620 [3]): Active; fold change (FC) (HEK293 [4]): 1.47; Activity (SW-620 [5]): inactive; Activity [6]: Active; fold change (FC) (KB 3-1 [7]): 1.11; fold change (FC) (KB-C2 [8]): 513.99; Activity (SW-620 [9]): 59%; Activity (SW-620 [10]): Active; clearance [11]: 17.7 mL/min/kg; Activity (SW-620 [12]): Active; fold change (FC) (KB-C2 [13]): 118.34; fold change (FC) [14]: 4.68; Activity (Mus musculus [15]): Non-Toxic; fold change (FC) (SW-620 [16]): 1.1; MRT inf [17]: 6.42 min; Activity (Mus musculus [18]): Non-Toxic; Activity (Mus musculus [19]): Non-Toxic; IC50 (KB 3-1 [20]): 3.53 nM; IC50 (KB-C2 [21]): 15.9 nM; IC50 (HEK293 [22]): 1.31 nM; fold change (FC) (SW-620 [23]): 1.06; IC50 (HEK293 [24]): 9.21 nM; AUC(0-inf) [25]: 9450 ng·h/mL; Activity (SW-620 [26]): Active; fold change (FC) (SW-620 [27]): 150.38; fold change (FC) (KB 3-1 [28]): 1.29; AUC(0-t) at 24 h [29]: 9440 ng·h/mL; IC50 (HEK293 [30]): 1.69 nM

Reference: ChEMBL document CHEMBL5055665, “Discovery of the Triazolo[1,5-a]Pyrimidine-Based Derivative WS-898 as a Highly Efficacious and Orally Bioavailable ABCB1 Inhibitor Capable of Overcoming Multidrug Resistance” (J Med Chem, 2021)
